Experimental data reported in PubChem BioAssay AID2060902 (Molecular Pharmacology Branch, DTP, NCI, 2025).

Test system: 485368-065-R3-J5-PDC spheroids with HUVEC/MSC, viability
Experiment: Anticancer human tumor 485368-065-R3-J5-PDC patient-derived pancreatic carcinoma cell line growth inhibition [RAS]
Conditions: for viability, T/C: stronger effect = lower value
Summary of the method: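 Tumour cells grown as complex spheroids with HUVEC endothelial cells and mesenchymal stem cells, treated with RAS pathway inhibitor combinations. Each agent spans half-log steps from near clinical Cmax, or 10 microM where Cmax is unknown.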

[1] = curve of first compound, second compound 0.000949 µM
[2] = curve of first compound, second compound 0.003 µM
[3] = curve of first compound, second compound 0.00949 µM
[4] = curve of first compound, second compound 0.03 µM
[5] = curve of first compound, second compound 0.0949 µM
[6] = curve of first compound, second compound 0.3 µM
[7] = second compound 0.000949 µM, first compound 0.00316 µM
[8] = second compound 0.000949 µM, first compound 0.01 µM
[9] = second compound 0.000949 µM, first compound 0.0316 µM
[10] = second compound 0.000949 µM, first compound 0.1 µM
[11] = second compound 0.000949 µM, first compound 0.316 µM
[12] = second compound 0.000949 µM, first compound 1 µM
[13] = second compound 0.003 µM, first compound 0.00316 µM
[14] = second compound 0.003 µM, first compound 0.01 µM
[15] = second compound 0.003 µM, first compound 0.0316 µM
[16] = second compound 0.003 µM, first compound 0.1 µM
[17] = second compound 0.003 µM, first compound 0.316 µM
[18] = second compound 0.003 µM, first compound 1 µM
[19] = second compound 0.00949 µM, first compound 0.00316 µM
[20] = second compound 0.00949 µM, first compound 0.01 µM
[21] = second compound 0.00949 µM, first compound 0.0316 µM
[22] = second compound 0.00949 µM, first compound 0.1 µM
[23] = second compound 0.00949 µM, first compound 0.316 µM
[24] = second compound 0.00949 µM, first compound 1 µM
[25] = second compound 0.03 µM, first compound 0.00316 µM
[26] = second compound 0.03 µM, first compound 0.01 µM
[27] = second compound 0.03 µM, first compound 0.0316 µM
[28] = second compound 0.03 µM, first compound 0.1 µM
[29] = second compound 0.03 µM, first compound 0.316 µM
[30] = second compound 0.03 µM, first compound 1 µM
[31] = second compound 0.0949 µM, first compound 0.00316 µM
[32] = second compound 0.0949 µM, first compound 0.01 µM
[33] = second compound 0.0949 µM, first compound 0.0316 µM
[34] = second compound 0.0949 µM, first compound 0.1 µM
[35] = second compound 0.0949 µM, first compound 0.316 µM
[36] = second compound 0.0949 µM, first compound 1 µM
[37] = second compound 0.3 µM, first compound 0.00316 µM
[38] = second compound 0.3 µM, first compound 0.01 µM
[39] = second compound 0.3 µM, first compound 0.0316 µM
[40] = second compound 0.3 µM, first compound 0.1 µM
[41] = second compound 0.3 µM, first compound 0.316 µM
[42] = second compound 0.3 µM, first compound 1 µM
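Also: spheroids exposed to agents for seven days before readout.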

SMILES: CC(C)n1nc(-c2ccc3oc(N)nc3c2)c2c(N)ncnc21
- viability, T/C (compound 0.000316 µM): 106% [middle of 4 runs]
- viability, T/C (compound 0.001 µM): 91.4% [middle of 4 runs]
- viability, T/C (compound 0.00316 µM): 89% [middle of 4 runs]
- viability, T/C (compound 0.01 µM): 65.8% [middle of 4 runs]
- viability, T/C (compound 0.0316 µM): 42.8% [middle of 4 runs]
- viability, T/C (compound 0.1 µM): 23.6% [middle of 4 runs]
- IC50 (curve of compound): 22.7 nM [middle of 4 runs]

SMILES: C=CC(=O)Nc1cc(Nc2nccc(-c3cn(C)c4ccccc34)n2)c(OC)cc1N(C)CCN(C)C + CCn1c(-c2cccnc2C(C)OC)c2c3cc(ccc31)N1CCOC(CC(NC(=O)C(C(C)C)N(C)C(=O)C3(F)CCN(C(=O)C#CC(C)(C)N(C)C)CC3)C(=O)N3CCCC(N3)C(=O)OCC(C)(C)C2)C1
- IC50 [1]: > 1000 nM
- IC50 [2]: > 1000 nM
- IC50 [3]: > 1000 nM
- IC50 [4]: > 1000 nM
- IC50 [5]: > 1000 nM
- IC50 [6]: > 1000 nM
- viability, T/C [7]: 104%
- viability, T/C [8]: 94.9%
- viability, T/C [9]: 99%
- viability, T/C [10]: 91%
- viability, T/C [11]: 101%
- viability, T/C [12]: 105%
- viability, T/C [13]: 87.5%
- viability, T/C [14]: 95.3%
- viability, T/C [15]: 102%
- viability, T/C [16]: 93.7%
- viability, T/C [17]: 113%
- viability, T/C [18]: 115%
- viability, T/C [19]: 88.7%
- viability, T/C [20]: 95.7%
- viability, T/C [21]: 98.4%
- viability, T/C [22]: 102%
- viability, T/C [23]: 117%
- viability, T/C [24]: 103%
- viability, T/C [25]: 89.4%
- viability, T/C [26]: 114%
- viability, T/C [27]: 92.5%
- viability, T/C [28]: 98%
- viability, T/C [29]: 105%
- viability, T/C [30]: 110%
- viability, T/C [31]: 104%
- viability, T/C [32]: 105%
- viability, T/C [33]: 105%
- viability, T/C [34]: 107%
- viability, T/C [35]: 110%
- viability, T/C [36]: 97.6%
- viability, T/C [37]: 101%
- viability, T/C [38]: 99.7%
- viability, T/C [39]: 106%
- viability, T/C [40]: 112%
- viability, T/C [41]: 106%
- viability, T/C [42]: 101%

SMILES: O=C(c1ccc(F)c(F)c1Nc1ccc(I)cc1F)N1CC(O)([C@@H]2CCCCN2)C1 + CCn1c(-c2cccnc2C(C)OC)c2c3cc(ccc31)N1CCOC(CC(NC(=O)C(C(C)C)N(C)C(=O)C3(F)CCN(C(=O)C#CC(C)(C)N(C)C)CC3)C(=O)N3CCCC(N3)C(=O)OCC(C)(C)C2)C1
- IC50 [1]: 58.6 nM
- IC50 [2]: 66.5 nM
- IC50 [3]: 59.5 nM
- IC50 [4]: 54.5 nM
- IC50 [5]: 65.5 nM
- IC50 [6]: 40.4 nM
- viability, T/C [7]: 101%
- viability, T/C [8]: 78.4%
- viability, T/C [9]: 64.1%
- viability, T/C [10]: 37.7%
- viability, T/C [11]: 26.4%
- viability, T/C [12]: 11.7%
- viability, T/C [13]: 97.3%
- viability, T/C [14]: 88.4%
- viability, T/C [15]: 60.1%
- viability, T/C [16]: 40.7%
- viability, T/C [17]: 31.5%
- viability, T/C [18]: 13.9%
- viability, T/C [19]: 87%
- viability, T/C [20]: 73.6%
- viability, T/C [21]: 60.9%
- viability, T/C [22]: 39.4%
- viability, T/C [23]: 30.1%
- viability, T/C [24]: 14%
- viability, T/C [25]: 89.6%
- viability, T/C [26]: 76.8%
- viability, T/C [27]: 62.5%
- viability, T/C [28]: 36.8%
- viability, T/C [29]: 24%
- viability, T/C [30]: 15%
- viability, T/C [31]: 88.3%
- viability, T/C [32]: 75.3%
- viability, T/C [33]: 64%
- viability, T/C [34]: 39.8%
- viability, T/C [35]: 28.5%
- viability, T/C [36]: 10%
- viability, T/C [37]: 91.4%
- viability, T/C [38]: 74.7%
- viability, T/C [39]: 51.1%
- viability, T/C [40]: 36.3%
- viability, T/C [41]: 23.5%
- viability, T/C [42]: 8.18%
